Patent US9944991B2, “Compositions and methods for diagnosis, prognosis and treatment of hematological malignancies” (Dana-Farber Cancer Institute, Inc., priority 2012, dated 2018)
“Also recorded” adds a separate entry of the source.

Experiments:
BCWM1 cells [1] = assay: [H]3 thymidine uptake cell proliferation assay; type: cell-based, human; conditions: 20 μM, 48 hours, vs scramble control
Protocol: (§1) To assess the uptake of antimiR-155 into BCWM1 or MEC1 cells, a 5′ FAM-labeled antimiR-155 was used and the antimiR was added directly to the cell suspension without any transfection reagent. The uptake of FAM-labeled antimiR-155 into BCWM1 cells was higher than 90% as judged by flow cytometry (data not shown), which indicates efficient delivery of the 8-mer antimiR into tumor cells. To further examine the functional effect of antimiR-155 on BCWM1 or MEC1, cell survival and cell proliferation was measured by MTT and [H]^3 thymidine uptake assays, respectively. […] Thus, miR-155 inhibition regulates cell proliferation, but not cell apoptosis.

MEC1 cells [2] = assay: [H]3 thymidine uptake cell proliferation assay; type: cell-based, human; conditions: 20 μM, 48 hours, vs scramble control
Protocol: as §1

BCWM1 cells [3] = assay: MTT cell survival / cytotoxicity assay; type: cell-based, human; conditions: 20 μM, 48 hours, vs scramble control
Protocol: as §1

MEC1 cells [4] = assay: MTT cell survival / cytotoxicity assay; type: cell-based, human; conditions: 20 μM, 48 hours, vs scramble control
Protocol: as §1

BCWM1 cells [5] = assay: Co-culture with stromal cells from wild-type or miR-155−/− mice, [H]3 thymidine uptake; type: cell-based, human; conditions: 20 μM, 48 hours, vs scramble control
Protocol: (§2) To further clarify whether antimiR-155 can affect both tumor cells and stromal cells, BCWM1 or MEC1 cells were treated with antimiR-155 or scramble control, followed by co-culturing of the treated cells with bone marrow stromal cells from wild-type mice in comparison with stromal cells from miR-155^−/− mice. Cell survival and cell proliferation were assessed by MTT assay and [H]^3 thymidine uptake assays, respectively, after 48-hour of co-culture.

MEC1 cells [6] = assay: as above; type: cell-based, human; conditions: 20 μM, 48 hours, vs scramble control
Protocol: as §2

miR-155 [7] = assay: Gene expression profiling and qRT-PCR of miR-155 target mRNAs in BCWM1 cells; type: cell-based, human; conditions: vs scramble control
Protocol: Total RNA from BCWM1 cells treated with antimiR-155 or LNA scramble control oligonucleotide, respectively, for 48 hours, were isolated using RNeasy kit (Qiagen) as described by the manufacturer, and hybridized on an Affymetrix U133A 2.0 array chip (Affymetrix, Santa Clara, Calif.). GEP data were analyzed using dChip software (biosunl.harvard.edu/complab/dchip/). Candidate target mRNAs for miR-155 were identified by using the algorithms TargetScan (genes.mit.edu/targetscan/), PicTar (pictar.bio.nyu.edu/) and RNAhybrid (bibiserv.techfak.uni-bielefeld.de/rnahybrid/).
(§3) Total RNA of cells was isolated with the RNeasy kit (Qiagen). cDNA was synthesized using the SuperScript cDNA synthesis kit (Invitrogen) and qRT-PCR reactions were performed using SYBR master mix (SA Bioscience) with designated primers relative to 18S expression by StepOnePlus™ Real-Time PCR System (Applied Biosystem) in triplicates. TaqMan® microRNA Assays kits (Applied Biosystem) were used for quantifying hsa-miR-155 levels relative to RNU6B expression.
To identify new direct miR-155 targets in B cell lymphomas, gene expression profiling (GEP) was performed on BCWM.1 cells after treatment with antimiR-155 or scramble control for 24 or 48 hours. […]

BCWM1 cells [8] = assay: Co-culture with primary WM bone marrow stromal cells, proliferation; type: cell-based, human; conditions: 20 μM, 48 hours
Protocol: (§4) To examine the effect of antimiR-155 on tumor progression in the context of the microenvironment, the miR-155 levels were first quantified in bone marrow stromal cells (mesenchymal stem cells) from WM patients in comparison to normal healthy donors. […] Consequently, 20 μM antimiR-155 or scramble control was added to a co-culture of BCWM1 and primary WM bone marrow stromal cells or MEC1 cells and primary WM bone marrow stromal cells, and then assessed for cell proliferation by MTT and [H]^3 thymidine uptake assays, respectively, after 48-hours. […] No effect on cell cytotoxicity on stromal cells was observed.

MEC1 cells [9] = assay: as above; type: cell-based, human; conditions: 20 μM, 48 hours
Protocol: as §4

miR-155 [10] = assay: miR-155 target de-repression in xenograft mice (qRT-PCR of bone marrow CD19+ cells, immunostaining); type: in vivo, SCID mice
Protocol: (§5) Immediately after tail vein injection of mCherry-Luc+-BCWM1 cells (3×10^6/mouse) in SCID mice, the mice (6 mice/group) were treated with a single intravenous tail vein injection of 25 mg/kg with either antimiR-155 or LNA scramble control, followed by weekly maintenance doses of 5 mg/kg antimiR-155 or LNA scramble control until the mice were sacrificed. Mice were injected with 75 mg/kg luciferin (Caliper Life Sciences, Hopkinton, Mass.), followed by whole-body real-time bioluminescence imaging (Xenogen IVIS imaging system, Caliper Life Sciences, Hopkinton, Mass.) performed at Day 0, Day 14, and Day 19. Mice were sacrificed by inhalation of CO2. RNA was extracted from CD19+ cells isolated from one mouse femur by using CD19+ microbead selection. The other femur, liver, and spleen were fixed in formaldehyde.
Moreover, immunostaining confirmed de-repression of the MAFB and CEBPβ targets at the protein level in the bone marrow and spleen upon treatment with the antimiR-155 (FIG. 7D).

mCherry-Luc+-BCWM1 cells = assay: Xenograft mouse model of WM, bioluminescent imaging of tumor burden; type: in vivo, SCID mice
Protocol: as §5
To assess the anti-tumor activity of antimiR-155 in vivo, a xenograft mouse model of WM was used. Six SCID mice per group were engrafted with 3×10^6 mCherry-Luc^+-BCWM1 cells, after which mice were injected with a loading dose of 25 mg/kg antimiR-155 or scramble control, which was followed by weekly maintenance doses of 5 mg/kg of each respective compound until the mice were sacrificed. Tumor burden was monitored using bioluminescent imaging (BLI) at Days 0, 14, and 19 after injection (FIG. 7A).

[11] = test system: primary WM bone marrow stromal cells; assay: Cytotoxicity on stromal cells in co-culture; type: cell-based, human; conditions: 20 μM, 48 hours
Protocol: as §4

miR-155 [12] = assay: qRT-PCR of miR-155 target genes in primary WM CD19+ cells; type: cell-based, human; conditions: 20 μM, 48 hours, vs scramble control
Protocol: as §3
(§6) The mRNA levels of the six miR-155 target genes, SMAD5, SOCS1, CEBPβ, MAFB, SHANK2 and SH3PXD2A, […] were next determined by qRT-PCR from primary WM CD19^+ cells, and primary CLL cells, normal donor blood CD19^+ cells, BCWM1 and MEC1 cells.

miR-155 [13] = assay: qRT-PCR of miR-155 target genes in primary CLL cells; type: cell-based, human; conditions: 20 μM, 48 hours, vs scramble control
Protocol: as §3, §6

NF-κB p65 = NF-κB p65 DNA-binding activity (Active Motif TransAM) in nuclear extracts; type: cell-based, human; conditions: BCWM.1 and MWCL.1; everolimus 1 nM or bortezomib 5 nM, 4 hours; TNF-α 10 ng/mL
From the text: NF-κB activity was investigated using the Active Motif TransAM kits, a DNA-binding enzyme-linked immunosorbent assay (ELISA)-based assay (Active Motif North America, Carlsbad, Calif.).

With “antimiR-155: fully LNA-modified 8-mer seed-targeting antimiR-155 (3′ATTACGAT 5′ (SEQ ID NO:9)) (fully LNA-modified, chemistry not fully specified; listed 3' to 5')” the cell proliferation (BCWM1 cells [1]) was “significant reduction in cell proliferation”, the cell proliferation (MEC1 cells [2]) was “significant reduction in cell proliferation” and the cell cytotoxicity (BCWM1 cells [3]) was “no change in cell cytotoxicity”. The cell cytotoxicity (MEC1 cells [4]) was “no change in cell cytotoxicity”, the “tumor cell proliferation, co-culture with miR-155−/− stromal cells” value (BCWM1 cells [5]) was “not significantly” and the “tumor cell proliferation, co-culture with wild-type mice stroma” value (BCWM1 cells [5]) was “decreased tumor cell proliferation”. The “tumor cell proliferation, co-culture with miR-155−/− stromal cells” value (MEC1 cells [6]) was “not significantly”, the “tumor cell proliferation, co-culture with wild-type mice stroma” value (MEC1 cells [6]) was “decreased tumor cell proliferation” and the “validated miR-155 target mRNAs (CEBPβ, SMAD5, SOCS1)” value (miR-155 [7]; 24 or 48 hours) was “up-regulated; also recorded: upregulated”. For the same compound, the “new miR-155 targets MAFB, SHANK2, SH3PXD2A mRNA” value (miR-155 [7]; 48 hours) was “de-repressed; also recorded: upregulated”, the “protective effect of bone marrow stromal cells on WM tumor cells” value (BCWM1 cells [8]) was “overcame the protective effect of bone marrow stromal cells” and the “tumor cell proliferation in co-culture” value (BCWM1 cells [8]; primary WM bone marrow stromal cells) was “decreased tumor cell proliferation”. The “tumor cell proliferation in co-culture” value (MEC1 cells [9]) was “decreased tumor cell proliferation”, the “CEBPβ protein level in bone marrow and spleen (immunostaining)” value (miR-155 [10]; mouse, in vivo) was “de-repression” and the “MAFB protein level in bone marrow and spleen (immunostaining)” value (miR-155 [10]; mouse, in vivo) was “de-repression”. The “mRNA levels of six miR-155 targets in bone marrow WM CD19+ cells” value (miR-155 [10]; vs scramble control) was “de-repressed”, the “tumor burden (BLI)” value (mCherry-Luc+-BCWM1 cells; 25 mg/kg loading dose, weekly 5 mg/kg, Day 14 and Day 19, vs scramble control) was “significant reduction in tumor burden; also recorded: significantly decreased tumor burden” and the body weight (mCherry-Luc+-BCWM1 cells; antimiR-155 vs scramble control group) was “No difference in body weight”. For the same compound, the “cell cytotoxicity on stromal cells” value [11] was “No effect”, the “mRNA levels of the six miR-155 targets” value (miR-155 [12]) was “significant increase in the mRNA levels” and the “mRNA levels of the six miR-155 targets” value (miR-155 [13]) was “significant increase in the mRNA levels”.
With CC(C)C[C@H](NC(=O)[C@H](Cc1ccccc1)NC(=O)c1cnccn1)B(O)O [bortezomib] the “TNF-α-induced NF-κB recruitment to the nucleus, single agents” value (NF-κB p65) was “similarly inhibited”.
